From patent US20250107513A1, “METHOD FOR COUNTING EMBRYOS DEVELOPING IN A UTERUS OF CAENORHABDITIS ELEGANS” (Shanghai University, priority 2022, published 2025)

Tested on: Caenorhabditis elegans
Assay: counting embryos developing in the uterus of Caenorhabditis elegans after TPHP exposure
Type: in vivo
Settings: then cultured until pregnancy, relative to the control group, p<0.01
Protocol: As shown in a flowchart (FIG. 1) of a method in the present invention, this embodiment provides a method for counting embryos developing in a uterus of Caenorhabditis elegans exposed to a chemical of triphenyl phosphate (TPHP) for 72 hours, specifically including the following steps:
Step 5: Subject Caenorhabditis elegans to synchronization treatment. Nematode eggs are added dropwise to the NGM medium containing no E. coli, the nematode eggs are cultured at 20° C. for 16 to 20 hours under dark conditions, where Caenorhabditis elegans are in the L1 stage, and Caenorhabditis elegans at the stage are rinsed into a 1.5 mL centrifuge tube with the K solution 3 times.
Step 6: Prepare exposure solutions. 0.1000 g of TPHP solid is weighed accurately, the TPHP solid is dissolved in dimethyl sulfoxide until a concentration reaches 10 g/L, and then TPHP solutions are diluted with dimethyl sulfoxide again until concentrations reach 10 mg/L, 100 mg/L, 1000 mg/L and 5000 mg/L to be used as mother liquors later. Dimethyl sulfoxide is used as the mother liquor of the blank control group. The mother liquors are further diluted by 100 folds with the K solution and then diluting the diluted mother liquors by 100 folds with a K+ solution to finally obtain exposure solutions of Caenorhabditis elegans containing 0 μg/L (control group), 1 μg/L, 10 μg/L, 100 μg/L and 500 μg/L TPHP.
Step 7: Expose Caenorhabditis elegans to a TPHP solution. A prepared TPHP exposure solution is added to a sterile 6-well plate with 5 mL of prepared TPHP exposure solution per well. Caenorhabditis elegans at the L1 stage are then evenly added to the 6-well plate after the synchronization treatment, Caenorhabditis elegans are fed with 100 μg/L E. coli daily, and Caenorhabditis elegans are cultured for 72 hours.
Step 8: Select Caenorhabditis elegans at an exposure stage. The method in the present invention is applicable to pregnant Caenorhabditis elegans, and this is because Caenorhabditis elegans are […] after being exposed to TPHP for 72 hours. […]
Step 11: Count embryos in the uterus of Caenorhabditis elegans. The 24-well plate containing transparent Caenorhabditis elegans is put under an optical stereomicroscope, and exposed embryos of each Caenorhabditis elegans are counted, where exposed embryos of at least 25 nematodes are counted in each treatment group.
Step 12: Analyze data. Data is analyzed by using SPSS software, a confidence interval of samples is set to 95%, and an intra-group mean and mean error of the numbers of embryos developing in nematodes in different treatment groups are calculated, where the data can be selectively in a format of a mean percentage or multiple based on requirements of the experiment. […]

## O=P(Oc1ccccc1)(Oc1ccccc1)Oc1ccccc1 [TPHP, triphenyl phosphate]
Exposure to 1 μg/L TPHP from L1 stage for 72 hours
  decrease in the numbers of embryos in the uteri: 14.2%
Exposure to 10 μg/L TPHP from L1 stage for 72 hours
  decrease in the numbers of embryos in the uteri: 18.2%
Exposure to 100 μg/L TPHP from L1 stage for 72 hours
  decrease in the numbers of embryos in the uteri: 18.1%
Exposure to 500 μg/L TPHP from L1 stage for 72 hours
  decrease in the numbers of embryos in the uteri: 21.8%
